Reference: paper PMC10746708, “A small molecule iCDM-34 identified by in silico screening suppresses HBV DNA through activation of aryl hydrocarbon receptor” (Cell Death Discovery, 2023)

Key:
JAK/STAT signaling = assay: Western blotting of phospho-STAT1, STAT2, STAT3 in HCV replicon cells; format: cell-based, human; settings: 30 μM, 24 h
Procedure: HCV replicon cells were treated with 30 μM CDM-3008, iCDM-17, and iCDM-34 for 1 day. The cells were lyzed with 1 x SDS sample buffer containing PhosStop, Complete EDTA free, and 1 mM EDTA. After sonication for 30 s, the lysates were centrifuged at 12,000g for 10 min at 4 °C, and then the supernatants were collected. After reducing the 20 μg of supernatants with 50 mM DTT at 98 °C for 2 min, the samples were separated by SDS-PAGE. STAT1, STAT2, STAT3, pSTAT1, pSTAT2, and pSTAT3 were detected by Western blotting using anti-STAT1 (9175, 1/1000), STAT2 (72604, 1/1000), STAT3 (12640, 1/1000), pSTAT1 (Y701) (7649, 1/1000), pSTAT2 (Y690) (88410, 1/1000), and pSTAT3 (Y705) (9145, 1/1000) antibodies (Cell signaling technology, Massachusetts, USA).

phospho-SAMHD1 = assay: Western blotting of phospho-SAMHD1 in HepG2-NTCP-C4 cells; format: cell-based, human; settings: 30 μM, 1 day
Procedure: HepG2-NTCP-C4 cells were treated with 30 μM iCDM-17 and iCDM-34 for 1 day. The cells were lyzed with 20 mM TrisHCl pH 7.5 containing 100 mM NaCl, 10 mM EDTA, 1% TritonX-100, 1% Sodium deoxycholate, PhosSTOP (Roche), Complete EDTA free. The lysates were sonicated 30 s and mixed for 1 h with rotation at 4 °C. The lysates were centrifuged at 15,000 rpm for 10 min at 4 °C. The supernatants were analyzed by Western blotting using anti-phospho-SAMHD1 (Thr592) (Cell signaling technology, 89930, 1/1000), anti-SAMHD1 (Cell signaling technology, 49158, 1/1000), and β−actin (Santa Cruz, 1/1000).

[1] = Liver microsomal stability, human; format: in vitro ADME; settings: human liver microsomes
Procedure: (§1) Liver microsome stability studies (human, mouse, and rat) were performed at Sumika Chemical Analysis Service (Osaka, Japan) by following an established procedure. A mixture of 1 μM of substrate, 0.5 mg protein/mL of microsomes, and […] β-NADPH was incubated for 30 or 60 min and % remaining substrate was quantitatively measured by LC-MS/MS.

[2] = Liver microsomal stability, rat; format: in vitro ADME; settings: rat liver microsomes
Procedure: as §1

[3] = Liver microsomal stability, mouse; format: in vitro ADME; settings: mouse liver microsomes
Procedure: as §1

HBV genotype C = assay: Anti-HBV activity in HBV-infected PXB cells (HBV DNA by qPCR); format: cell-based; settings: Hepatitis B virus, 168 h; HBV genotype C-infected PXB cells, 0.03–100 µM for 7 days, qPCR; read-out: half maximal inhibitory concentration, cellular HBV DNA
Procedure: PXB cells (primary cultured human hepatocytes) were purchased from PhoenixBio (Higashi-Hiroshima, Japan) and cultured on collagen type I-coated 96- or 24-well plates in hepatocyte clonal growth medium at 37 °C and 5 % CO2 as previously described. RealTime-Glo MT Cell Viability Assay (Promega) and XTT assay were performed according to a previously established protocol.
PXB cells were plated on 96-well plate and infected with three genome equivalents per cell of HBV C_AT [33], and the medium was changed every 3 or 4 days. […] After treatment with these compounds, cellular DNA, medium DNA, and total RNA were automatically purified as per our previously established protocol. RNA purification of total RNA from cultured cells in the 24-well plate was performed using the RNeasy Mini Kit (Qiagen, Germantown, MD, USA) according to the manufacturer’s instructions.
HBV DNA copy numbers were determined using TaqMan Gene Expression Master Mix (Thermo Fisher Scientific) or Probe qPCR Mix (Takara Bio), specific primers, and probes in a qPCR system (Light Cycler 96 System, Roche, Basel, Switzerland or CFX96 Touch Real-Time PCR Detection System, Bio-Rad Laboratories, Hercules, CA, USA). The specific primers and probe used for detection of HBV DNA were as follows: forward primer: 5′-[…]-3′, reverse primer: 5′-[…]-3′, and probe: 5′-[FAM] […][TAM]-3′.

[4] = 1 μM substrate, 0.5 mg protein/mL, 30 min
[5] = 1 μM substrate, 0.5 mg protein/mL, 60 min

With `COc1ccc(CNC(=O)c2nc(-c3ccc4c(c3)OCO4)no2)cc1OC` [iCDM-17] the “phosphorylation of STAT1, STAT2, and STAT3” value (JAK/STAT signaling) was “not induced”, the phospho-SAMHD1 levels (phospho-SAMHD1) was “lower than pre-treatment levels” and the half-life at 1 μM [1] was 48.6 min. For the same molecule, the remaining at 0.5 h, 1 μM [1, 4] was 61.4 ± 0.9%, the remaining at 1 h, 1 μM [1, 5] was 42.3 ± 0.1% and the half-life at 1 μM [2] was 26.7 min. The remaining at 0.5 h, 1 μM [2, 4] was 32 ± 0.2%, the remaining at 1 h, 1 μM [2, 5] was 11.6 ± 0.2% and the half-life at 1 μM [3] was 34.8 min. For the same molecule, the remaining at 0.5 h, 1 μM [3, 4] was 45.8 ± 0.6%, the remaining at 1 h, 1 μM [3, 5] was 22.6% and the IC50 (HBV genotype C) was 56.6 µM.
